Data published in patent publication US5250554A, “Benzimidazole derivatives useful as angiotensin II inhibitors” (Takeda Chemical Industries, Ltd., priority 1989, dated 1993).
Structures can show the parent of a compound that is named as a salt. Where two headings read alike, the source gives them in different places.

How the values were obtained:
A-II receptor = target: T1, A-II receptor (Bos taurus, UniProt P25104); assay: Inhibition of binding of angiotensin-II to angiotensin receptor (radioreceptor assay, 125I-A-II); parameters: species or system bovine (membrane fraction of bovine adrenal cortex); settings: for inhibition at 10 µM: read-out: Radioreceptor assay, inhibition of A-II binding, 1 × 10^-5 M; for inhibition at 1 µM: read-out: Radioreceptor assay, inhibition of A-II binding, 1 × 10^-6 M
T1 construct: An A-II receptor was prepared from the membrane fraction of bovine adrenal cortex; from tissue; host or cells: bovine adrenal cortex, membrane fraction
T1 sequence (P25104 1-359): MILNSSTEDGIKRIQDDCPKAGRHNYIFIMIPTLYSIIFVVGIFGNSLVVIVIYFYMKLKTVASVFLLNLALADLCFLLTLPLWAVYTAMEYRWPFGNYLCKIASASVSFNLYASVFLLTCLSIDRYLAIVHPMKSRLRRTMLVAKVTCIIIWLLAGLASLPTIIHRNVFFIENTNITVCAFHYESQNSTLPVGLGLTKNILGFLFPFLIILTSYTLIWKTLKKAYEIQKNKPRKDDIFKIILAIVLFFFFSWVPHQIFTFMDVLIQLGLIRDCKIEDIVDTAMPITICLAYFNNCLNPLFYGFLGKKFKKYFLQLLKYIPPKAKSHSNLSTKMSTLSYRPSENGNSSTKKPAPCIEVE
Description: Inhibition of binding of angiotensin-II to angiotensin receptor
An A-II receptor was prepared from the membrane fraction of bovine adrenal cortex.

pressor action of A-II = assay: Inhibitory effect on pressor action of A-II (oral drug, i.v. A-II 100 ng/kg); format: in vivo, Jcl:SD rats (9 week old, male); settings: rats, A-II 100 ng/kg i.v.; for inhibition in vivo at 3 mg/kg / inhibition in vivo at 30 mg/kg: Rattus norvegicus, po; for inhibition in vivo at 3 mg/kg: read-out: Pressor response to A II (p.o.), 3 mg/kg (percent inhibition); for inhibition in vivo at 30 mg/kg: read-out: Pressor response to A II (p.o.), 30 mg/kg (percent inhibition)
Text: Inhibitory effect of the compound of this invention on pressor action of A-II
Jcl:SD rats (9 week old, male) were used. On the day prior to that of the experiment, these animals were applied with cannulation into the femoral artery and vein under anesthesia with pentobarbital Na. The animals were fasted but allowed free access to drinking water until the experiment was started. On the day of conducting the experiment, the artery cannula was connected with a blood-pressure transducer, and the average blood pressure was recorded by means of polygraph. […] The drugs were orally administered, and then, at each point of the measurement, A-II was administered intravenously, and the pressor action was similarly measured. By comparing the pressor action before and after administration of the drug, the percent inhibition by the drug on A-II-induced pressor action was evaluated.

[1] = 1 × 10^-5 M, bovine adrenal cortex membrane, 125I-A-II, 1 h room temperature
[2] = 1 × 10^-6 M, bovine adrenal cortex membrane, 125I-A-II, 1 h room temperature

| inhibition at 10 µM (A-II receptor; [1]) | inhibition at 1 µM (A-II receptor; [2]) | Radioreceptor assay, inhibition of A-II binding, 1 × 10^-5 M (A-II receptor; [1]) | Radioreceptor assay, inhibition of A-II binding, 1 × 10^-6 M (A-II receptor; [2]) | Structure (SMILES) | inhibition in vivo at 3 mg/kg (pressor action of A-II; 3 mg/kg p.o.) | inhibition in vivo at 30 mg/kg (pressor action of A-II; 30 mg/kg p.o.) | Pressor response to A II (p.o.), 3 mg/kg (percent inhibition) (pressor action of A-II; 3 mg/kg p.o.) | Pressor response to A II (p.o.), 30 mg/kg (percent inhibition) (pressor action of A-II; 30 mg/kg p.o.) | inhibition at 10 µM (A-II receptor) | inhibition at 1 µM (A-II receptor) |
| --- | --- | --- | --- | --- | --- | --- | --- | --- | --- | --- |
| 61% | 6% |  |  | CCCCc1nc2c(C(=O)OC)cccc2n1Cc1ccc(-c2ccccc2-c2nn[nH]n2)cc1 [Reference Example 29, reference compound] |  | < 30% |  |  |  |  |
| 96% | 91% |  |  | CCc1nc2cccc(C(=O)O)c2n1Cc1ccc(-c2ccccc2-c2nn[nH]n2)cc1 [Working Example 27] | > 70% | > 70% |  |  |  |  |
| 95% | 79% |  |  | CCCc1nc2cccc(C(=O)O)c2n1Cc1ccc(-c2ccccc2-c2nn[nH]n2)cc1 [Working Example 7, 2-Propyl-1-[[2'-(1H-tetrazol-5-yl)bichenyl-4-yl]methyl]benzimidazole-7-carboxylic acid] | > 70% | > 70% |  |  |  |  |
|  |  | 87 | 60 | CCCCc1nc2cccc(C(=O)O)c2n1Cc1ccc(-c2ccccc2-c2nn[nH]n2)cc1 [Working Example 29, 2-Butyl-1-[[2'-(1H-tetrazol-5-yl)biphenyl-4-yl]methyl]benzimidazole-7-carboxylic acid 2.potassium salt] |  |  | +++ (+++ ≥70%) | +++ (+++ ≥70%) |  |  |
| 95% | 86% |  |  | CCCCc1nc2cccc(C(=O)OCOC(=O)C(C)(C)C)c2n1Cc1ccc(-c2ccccc2-c2nn[nH]n2)cc1 [Working Example 36] | > 70% | > 70% |  |  |  |  |
| 82% | 50% |  |  | CCCCc1nc2cccc(C(=O)OCC)c2n1Cc1ccc(-c2ccccc2-c2nnn[nH]2)cc1 [Working Example 14, Ethyl 2-butyl-1-[[2'-(1H-tetrazol-5-yl)biphenyl-4-yl]methyl]benzimidazole-7-carboxylate] | 50 to 70% | > 70% |  |  |  |  |
| 91% | 71% |  |  | CCCCc1nc2cccc(C(=O)O)c2n1Cc1ccc(-c2ccccc2-c2nn[nH]n2)cc1 [Working Example 4, 2-Butyl-1-[[2'-(1H-tetrazol-5-Yl)biphenyl-4-yl]methyl]benzimidazole-7-carboxylic acid 2-sodium salt] | > 70% | > 70% |  |  |  |  |
| 90% | 66% |  |  | CCCCc1nc2cccc(C(=O)OC)c2n1Cc1ccc(-c2ccccc2-c2nnn[nH]2)cc1 [Working Example 34, Methyl 2-butyl-1-[[2'-(1H-tetrazol-5-yl)biphenyl-4-yl]methyl]benzimidazole-7-carboxylate] | > 70% | > 70% |  |  |  |  |

The remaining lines, values behind:

| Structure (SMILES) | inhibition at 10 µM (A-II receptor; [1]) | inhibition at 1 µM (A-II receptor; [2]) | Radioreceptor assay, inhibition of A-II binding, 1 × 10^-5 M (A-II receptor; [1]) | Radioreceptor assay, inhibition of A-II binding, 1 × 10^-6 M (A-II receptor; [2]) | inhibition in vivo at 3 mg/kg (pressor action of A-II; 3 mg/kg p.o.) | inhibition in vivo at 30 mg/kg (pressor action of A-II; 30 mg/kg p.o.) | Pressor response to A II (p.o.), 3 mg/kg (percent inhibition) (pressor action of A-II; 3 mg/kg p.o.) | Pressor response to A II (p.o.), 30 mg/kg (percent inhibition) (pressor action of A-II; 30 mg/kg p.o.) | inhibition at 10 µM (A-II receptor) | inhibition at 1 µM (A-II receptor) |
| --- | --- | --- | --- | --- | --- | --- | --- | --- | --- | --- |
| CCCCc1nc2ccccc2n1Cc1ccc(-c2ccccc2-c2nnn[nH]2)cc1 [Reference Example 17, 2-Butyl-1-[[2'-(1H-tetrazol-5-yl)biphenyl-4-yl]methyl]benzimidazole, reference compound] | 87% | 52% |  |  | < 30% | < 30% |  |  |  |  |
| CCCCc1nc2ccc(C(=O)O)cc2n1Cc1ccc(-c2ccccc2-c2nn[nH]n2)cc1 [compound 50, reference compound] | 53% | 7% |  |  | < 30% | < 30% |  |  |  |  |
| COCc1nc2cccc(C(=O)O)c2n1Cc1ccc(-c2ccccc2-c2nnn[nH]2)cc1 [Working Example 49, 2-Methoxymethyl-1-[[2'-(1H-tetrazol-5-yl)biphenyl-4-yl]methyl]benzimidazole-7-carboxylic acid] | 73% | 35% |  |  | > 70% | > 70% |  |  |  |  |
| CCCCc1nc2ccc(OC)cc2n1Cc1ccc(-c2ccccc2-c2nn[nH]n2)cc1 [compound 19, reference compound] | 88% | 47% |  |  | < 30% |  |  |  |  |  |
| CCCCc1nc2cc(Cl)cc(C(=O)OC)c2n1Cc1ccc(-c2ccccc2-c2nnn[nH]2)cc1 [Working Example 12, Methyl 2-butyl-5-chloro-1-[[2'-(1H-tetrazol-5-yl)biphenyl-4-yl]methyl]benzimidazole-7-carboxylate] | 91% | 65% |  |  | 50 to 70% | > 70% |  |  |  |  |
| CCCCc1nc2cc(C)cc(C(=O)OC)c2n1Cc1ccc(-c2ccccc2-c2nn[nH]n2)cc1 [Working Example 9] | 92% | 45% |  |  | 50 to 70% |  |  |  |  |  |
| CSCc1nc2cccc(C(=O)O)c2n1Cc1ccc(-c2ccccc2-c2nnn[nH]2)cc1 [Working Example 51, 2-Methylthiomethyl-1-[[2'-(1H-tetrazol-5-yl)biphenyl-4-yl]methyl]benzimidazole-7-carboxylic acid] | 76% | 45% |  |  | > 70% | > 70% |  |  |  |  |
| CCCCc1nc2ccc(Cl)cc2n1Cc1ccc(-c2ccccc2-c2nn[nH]n2)cc1 [compound 21, 2-Butyl-6-chloro-1-[[2,-(1H-tetrazol-5-yl)biphenyl-4-yl]methyl]benzimidazol, reference compound] | 79% | 22% |  |  |  | < 30% |  |  |  |  |
| CCCCc1nc2cccc(COC)c2n1Cc1ccc(-c2ccccc2-c2nnn[nH]2)cc1 [Working Example 19, 2-butyl-7-methoxymethyl-1-[[2'-(1H-tetrazol-5-yl)biphenyl-4-yl]methyl]benzimidazole sodium salt] |  |  |  |  | 30 to 50% |  |  |  | 90% | 60% |
| CCCCc1nc2cc(C(=O)O)ccc2n1Cc1ccc(-c2ccccc2-c2nnn[nH]2)cc1 [compound 44, 2-Butyl-1-[[2'-(1H-tetrazol-5-yl)biphenyl-4-yl]methyl]benzimidazole-5-carboxylic acid, reference compound] | 66% | 13% |  |  | < 30% |  |  |  |  |  |
| CCCCc1nc2cccc(CO)c2n1Cc1ccc(-c2ccccc2-c2nnn[nH]2)cc1 [Working Example 16, 2-Butyl-7-hydroxymethyl-1-[[2'-(1H-tetrazol-5-yl)biphenyl-4-yl]methyl]benzimidazole] | 90% | 67% |  |  |  | > 70% |  |  |  |  |
| CC(C)c1nc2cccc(C(=O)O)c2n1Cc1ccc(-c2ccccc2-c2nnn[nH]2)cc1 [Working Example 28, 2-Isopropyl-1-[[2'-(1H-tetrazol-5-yl)biphenyl-4-yl]methyl]benzimidazole-7-carboxylic acid] | 98% | 88% |  |  | 30 to 50% |  |  |  |  |  |
| CCCCc1nc2ccccc2n1Cc1ccc(-c2ccccc2C(=O)O)cc1 [compound 26, 2-[4-(2-Butylbenzimidazol-1-yl)methylphenyl]benzoic acid, reference compound] | 87% | 48% |  |  |  |  |  |  |  |  |
| CCCCc1nc2ccc(C(=O)OC)cc2n1Cc1ccc(-c2ccccc2-c2nnn[nH]2)cc1 [compound 49, Methyl 2-butyl-1-[[2'-(1H-tetrazol-5-yl)biphenyl-4-yl]methyl]benzimidazole-6-carboxylate, reference compound] | 94% | 77% |  |  | < 30% | < 30% |  |  |  |  |
| CCCc1nc2cccc(C(=O)OC)c2n1Cc1ccc(-c2ccccc2-c2nnn[nH]2)cc1 [Working Example 31, Methyl 2-propyl-1-[[2'-(1H-tetrazol-5-yl)biphenyl-4-yl)methyl]benzimidazole-7-carboxylate] | 92% | 78% |  |  | > 70% | > 70% |  |  |  |  |
